From ChEMBL document CHEMBL1128638, “Probing the hydrophobic pocket of the active site of aromatase with 4-phenoxy-7 alpha-(phenylthio)-4-androstene-3,17-dione” (J Med Chem, 1995)

Molecular target: T1, Aromatase (Homo sapiens, UniProt P11511)
T1 sequence (P11511 whole entry): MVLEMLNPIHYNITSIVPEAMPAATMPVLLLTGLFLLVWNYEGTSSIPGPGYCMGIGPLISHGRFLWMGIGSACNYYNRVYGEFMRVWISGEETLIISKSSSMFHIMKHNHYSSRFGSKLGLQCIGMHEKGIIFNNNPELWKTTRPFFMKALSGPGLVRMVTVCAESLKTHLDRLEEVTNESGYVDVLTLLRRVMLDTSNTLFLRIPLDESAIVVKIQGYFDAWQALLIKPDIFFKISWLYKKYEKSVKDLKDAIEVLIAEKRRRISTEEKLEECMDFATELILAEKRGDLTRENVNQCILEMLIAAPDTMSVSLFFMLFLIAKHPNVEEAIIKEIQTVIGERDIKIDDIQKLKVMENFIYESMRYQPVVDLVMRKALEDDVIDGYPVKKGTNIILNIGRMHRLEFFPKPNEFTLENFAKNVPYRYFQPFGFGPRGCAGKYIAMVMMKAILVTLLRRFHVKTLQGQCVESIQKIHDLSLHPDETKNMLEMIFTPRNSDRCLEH
Assay: Inhibition of Cytochrome P450 19A1

| Structure (SMILES) | IC50 [nM] |
| --- | --- |
| C[C@]12CCC(=O)C=C1C[C@@H](Sc1ccccc1)[C@@H]1[C@@H]2CC[C@]2(C)C(=O)CC[C@@H]12 | 650 |
| CC12CCC3C(CCC4=C(Oc5ccccc5)C(=O)CCC43C)C1CCC2=O (centres undefined) | 530 |
| CC12CCC3C(C1CCC2=O)[C@H](Sc1ccccc1)CC1=C(Oc2ccccc2)C(=O)CCC13C (some centres undefined) | 1650 |
| CC12CCC3C(CCC4=C(Sc5ccccc5)C(=O)CCC43C)C1CCC2=O (centres undefined) | 190 |
